What is called DC50 is the midpoint of the concentration-degradation curve. A lower DC50 goes with degradation at low concentration. What is called Dmax is the largest share of the target that was removed.

Consider nine molecules from US20260317324A1, “BIFUNCTIONAL COMPOUNDS FOR DEGRADING BRAF VIA UBIQUITIN PROTEOSOME PATHWAY” (Nurix Therapeutics, Inc., priority 2023, published 2026).

Molecules are shown by their SMILES.

What all share (type): cell-based
One test addresses T1, BRAF G469A (Homo sapiens, UniProt P15056, G469A).
T1 construct: Horizon Discovery (HCT-116 BRAF−/− cells); host or cells: HCT-116 BRAF−/− cells, clone 34, lentiviral transduction
The experiment in a line: BRAF HiBiT degradation assay, C-terminal HiBiT-tagged BRAF G469A overexpressed in HCT-116 BRAF−/− cells (clone 34), Nano-Glo HiBiT Lytic assay. Summed up:
(§1)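 First, the stable HiBiT-tagged cells were plated and incubated for 24 h. Next, compound was added in duplicate as an 11-point series with a 1 μM top concentration. Lytic detection followed, with DMSO-treated parental cells used for background. Finally, DC50 and Obs. Dmax relative to DMSO were derived from the % protein remaining curves.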
In general terms: With HiBiT, luminescence reflects the tagged protein that the partner subunit can reach.

A further test concerns the target T2, BRAF D594G (Homo sapiens, UniProt P15056, D594G).
T2 construct: Horizon Discovery (HCT-116 BRAF−/− cells); host or cells: HCT-116 BRAF−/− cells, clone 63, lentiviral transduction
The experiment in a line: BRAF HiBiT degradation assay, C-terminal HiBiT-tagged BRAF D594G overexpressed in HCT-116 BRAF−/− cells (clone 63), Nano-Glo HiBiT Lytic assay. Summed up: as §1

Another test has as its target T3, BRAF G466V (Homo sapiens, UniProt P15056, G466V).
T3 construct: Horizon Discovery (HCT-116 BRAF−/− cells); host or cells: HCT-116 BRAF−/− cells, clone 8, lentiviral transduction
The test is described as follows: BRAF HiBiT degradation assay, C-terminal HiBiT-tagged BRAF G466V overexpressed in HCT-116 BRAF−/− cells (clone 8), Nano-Glo HiBiT Lytic assay. The method in brief:
as §1

A further test concerns the target T4, BRAF V600E (Homo sapiens, UniProt P15056, V600E).
T4 construct: endogenous C-terminal HiBiT fusion tag on BRAF V600E allele; endogenous in cells; host or cells: A375 clone 1F10 (CRISPR-Cas9 knock-in of the HiBiT tag; parental A375 from ATCC)
The experiment in a line: BRAF HiBiT degradation assay, C-terminal HiBiT-tagged BRAF V600E A375 cells (clone 1F10), Nano-Glo HiBiT Lytic assay. To be noted: for Dmax: A-375. The method in brief:
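Degradation is measured as loss of HiBiT signal from BRAF V600E tagged at its native locus in A375 cells. Doses span 1 μM to 0.01 nM in half-log steps, in duplicate. Percent remaining is calculated against DMSO controls after subtracting untagged A375 background, and curve fitting yields DC50 and observed Dmax.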

Where [1] appears, read: Class 2, BRAF G469A, DC50 at 50%: fitted conc. at Y=50.
Setting [2] is: HCT-116, Class 2, BRAF G469A, percentage protein degraded at maximal compound effect relative to DMSO.
Where [3] appears, read: BRAF D594G, DC50 at 50%: fitted conc. at Y=50.
[4] abbreviates: HCT-116, BRAF D594G, percentage protein degraded at maximal compound effect relative to DMSO.
Setting [5] is: BRAF G466V, DC50 at 50%: fitted conc. at Y=50.
[6] abbreviates: HCT-116, BRAF G466V, percentage protein degraded at maximal compound effect relative to DMSO.
The mark [7] stands for this setting: A375 (BRAF V600E), DC50 at 50%: fitted conc. at Y=50.
The mark [8] stands for this setting: A375 (BRAF V600E), percentage protein degraded at maximal compound effect relative to DMSO.
The mark [9] stands for this setting: BRAF G469A (Class 2), HCT-116 BRAF−/− cells, DC50 at 50% degradation.
[10] abbreviates: BRAF G469A (Class 2), HCT-116 BRAF−/− cells, observed Dmax relative to DMSO control.
[11] abbreviates: BRAF D594G (Class 3), HCT-116 BRAF−/− cells, DC50 at 50% degradation.
Setting [12] is: BRAF D594G (Class 3), HCT-116 BRAF−/− cells, observed Dmax relative to DMSO control.
The mark [13] stands for this setting: BRAF G466V (Class 3), HCT-116 BRAF−/− cells, DC50 at 50% degradation.
Setting [14] is: BRAF G466V (Class 3), HCT-116 BRAF−/− cells, observed Dmax relative to DMSO control.
The mark [15] stands for this setting: A375 (BRAF V600E, Class 1), DC50 at 50% degradation.
The mark [16] stands for this setting: A375 (BRAF V600E, Class 1), observed Dmax, % protein degraded relative to DMSO control.

T2 sequence (P15056 whole entry D594G): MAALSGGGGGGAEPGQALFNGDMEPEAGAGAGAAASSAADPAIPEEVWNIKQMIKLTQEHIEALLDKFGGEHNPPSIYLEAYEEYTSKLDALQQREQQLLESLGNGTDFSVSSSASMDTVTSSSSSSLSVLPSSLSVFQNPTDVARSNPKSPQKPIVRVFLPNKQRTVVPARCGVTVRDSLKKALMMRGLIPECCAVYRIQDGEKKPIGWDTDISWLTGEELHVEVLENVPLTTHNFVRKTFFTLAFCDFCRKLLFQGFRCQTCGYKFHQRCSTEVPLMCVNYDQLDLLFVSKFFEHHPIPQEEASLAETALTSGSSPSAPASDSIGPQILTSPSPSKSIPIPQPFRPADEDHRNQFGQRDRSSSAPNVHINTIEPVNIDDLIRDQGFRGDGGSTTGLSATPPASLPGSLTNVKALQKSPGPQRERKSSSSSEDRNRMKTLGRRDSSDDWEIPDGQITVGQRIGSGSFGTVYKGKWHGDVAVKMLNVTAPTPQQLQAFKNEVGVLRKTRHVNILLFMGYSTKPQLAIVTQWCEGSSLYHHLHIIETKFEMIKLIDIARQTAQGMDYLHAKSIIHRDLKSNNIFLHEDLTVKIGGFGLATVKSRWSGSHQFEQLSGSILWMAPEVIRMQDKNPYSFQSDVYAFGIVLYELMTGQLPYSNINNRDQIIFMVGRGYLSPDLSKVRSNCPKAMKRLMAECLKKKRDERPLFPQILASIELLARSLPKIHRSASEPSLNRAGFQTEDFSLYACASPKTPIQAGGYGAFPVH
T3 sequence (P15056 whole entry G466V): as the sequence (P15056 whole entry D594G) above, with G466V, G594D counted along it
T4 sequence (P15056 whole entry V600E, the tested form may be a part): as the sequence (P15056 whole entry D594G) above, with G594D, V600E counted along it
T1 sequence (P15056 whole entry G469A): as the sequence (P15056 whole entry D594G) above, with G469A, G594D counted along it

For the molecule `CCCS(=O)(=O)Nc1cccc(-c2nc(C(C)(C)C)sc2-c2ccnc(Nc3cccc(OC4CCN(C(=O)[C@H]5CC[C@H](Oc6ccc(C7CCC(=O)NC7=O)cn6)CC5)CC4)c3)n2)c1F` (mixture of isomers) [Compound 97, N-{3-[2-tert-butyl-5-(2-{[3-({1-[(1r,4r)-4-({5-[(3RS)-2,6-dioxopiperidin-3-yl]pyridin-2-yl}oxy)cyclohexanecarbonyl]piperidin-4-yl}oxy)phenyl]amino}pyrimidin-4-yl)-1,3-thiazol-4-yl]-2-fluorophenyl}propane-1-sulfonamide], the DC50 was above 500 nM at BRAF G469A (setting [1]), above 500 nM at BRAF D594G (setting [3]), above 500 nM on BRAF G466V (setting [5]) and 10 to 50 nM at BRAF V600E (setting [7]). Moreover, the Dmax on BRAF G469A (setting [2]) is below 30%; on BRAF D594G (setting [4]), 30 to 70%; on BRAF G466V (setting [6]), 30 to 70%; on BRAF V600E (setting [8]), above 70%.
For the molecule `CCCS(=O)(=O)Nc1cccc(-c2nc(C(C)(C)C)sc2-c2ccnc(Nc3cccc(C4CCN(CC[C@@H]5CCN(c6ccc(C7CCC(=O)NC7=O)cn6)C5)CC4)c3)n2)c1F` (mixture of isomers) [Compound 75, N-{3-[2-tert-butyl-5-(2-{[3-(1-{2-[(3R)-1-{5-[(3RS)-2,6-dioxopiperidin-3-yl]pyridin-2-yl}pyrrolidin-3-yl]ethyl}piperidin-4-yl)phenyl]amino}pyrimidin-4-yl)-1,3-thiazol-4-yl]-2-fluorophenyl}propane-1-sulfonamide], the DC50 was above 500 nM on BRAF G469A (setting [1]), above 500 nM on BRAF D594G (setting [3]), above 500 nM at BRAF G466V (setting [5]) and 10 to 50 nM at BRAF V600E (setting [7]). For the same molecule, the Dmax at BRAF G469A (setting [2]) is below 30%; on BRAF D594G (setting [4]) it was below 30%; at BRAF G466V (setting [6]) it was below 30%; on BRAF V600E (setting [8]), above 70%.
As to `CCCS(=O)(=O)Nc1cccc(-c2nc(C3CCC4(CC3)CCN(C(=O)C3CCN(c5ccc(C(=O)NC6CCC(=O)NC6=O)nc5)CC3)CC4)sc2-c2ccnc(N)n2)c1F` (racemic) [Compound 252, Rac-5-(4-{9-[5-(2-aminopyrimidin-4-yl)-4-[2-fluoro-3-(propane-1-sulfonamido)phenyl]-1,3-thiazol-2-yl]-3-azaspiro[5.5]undecane-3-carbonyl}piperidin-1-yl)-N-[(3R)-2,6-dioxopiperidin-3-yl]pyridine-2-carboxamide], the DC50 is above 500 nM at BRAF G469A (setting [9]), above 500 nM at BRAF D594G (setting [11]), above 500 nM at BRAF G466V (setting [13]) and 10 to 50 nM at BRAF V600E (setting [15]). In addition, the Dmax on BRAF G469A (setting [10]) was below 30%; at BRAF D594G (setting [12]), below 30%; at BRAF G466V (setting [14]), below 30%; on BRAF V600E (setting [16]), above 70%.
As for `CCCS(=O)(=O)Nc1cccc(-c2nc(C3CCN(CC4CCN(C(=O)[C@H]5CC[C@H](Oc6ccc(C7CCC(=O)NC7=O)cc6)CC5)CC4)CC3)sc2-c2ccnc(N)n2)c1F` (mixture of isomers) [Compound 224, N-{3-[5-(2-aminopyrimidin-4-yl)-2-[1-({1-[(1r,4r)-4-{4-[(3RS)-2,6-dioxopiperidin-3-yl]phenoxy}cyclohexanecarbonyl]piperidin-4-yl}methyl)piperidin-4-yl]-1,3-thiazol-4-yl]-2-fluorophenyl}propane-1-sulfonamide], the DC50 is above 500 nM on BRAF G469A (setting [1]), above 500 nM on BRAF D594G (setting [3]), above 500 nM at BRAF G466V (setting [5]) and below 10 nM on BRAF V600E (setting [7]). For the same molecule, the Dmax at BRAF G469A (setting [2]) is below 30%; at BRAF D594G (setting [4]), 30 to 70%; at BRAF G466V (setting [6]) it was 30 to 70%; at BRAF V600E (setting [8]) it was above 70%.
With `CCCS(=O)(=O)Nc1cccc(-c2nc(C(C)(C)C)sc2-c2ccnc(Nc3ccc(C4CCN(C(=O)CN5CCN(c6cc(C7CCC(=O)NC7=O)ccn6)CC5)CC4)cc3)n2)c1F` (racemic) [Compound 174, Rac-N-[3-(2-tert-butyl-5-{2-[(4-{1-[2-(4-{4-[(3R)-2,6-dioxopiperidin-3-yl]pyridin-2-yl}piperazin-1-yl)acetyl]piperidin-4-yl}phenyl)amino]pyrimidin-4-yl}-1,3-thiazol-4-yl)-2-fluorophenyl]propane-1-sulfonamide], the DC50 at BRAF G469A (setting [1]) was above 500 nM; on BRAF D594G (setting [3]), above 500 nM; on BRAF G466V (setting [5]), above 500 nM; on BRAF V600E (setting [7]) it was 10 to 50 nM. Further, the Dmax at BRAF G469A (setting [2]) is below 30%; on BRAF D594G (setting [4]), below 30%; on BRAF G466V (setting [6]), below 30%; on BRAF V600E (setting [8]), above 70%.
In the case of `CCCS(=O)(=O)Nc1cccc(-c2nc(C(C)(C)C)sc2-c2ccnc(Nc3ccc(C4CCN(C(=O)C5CN(c6ccc(C7CCC(=O)NC7=O)cn6)C5)CC4)cc3)n2)c1F` (racemic) [Compound 159, Rac-N-(3-{2-tert-butyl-5-[2-({4-[1-(1-{5-[(3R)-2,6-dioxopiperidin-3-yl]pyridin-2-yl}azetidine-3-carbonyl)piperidin-4-yl]phenyl}amino)pyrimidin-4-yl]-1,3-thiazol-4-yl}-2-fluorophenyl)propane-1-sulfonamide], the DC50 is above 500 nM on BRAF G469A (setting [1]), above 500 nM at BRAF D594G (setting [3]), above 500 nM on BRAF G466V (setting [5]) and below 10 nM at BRAF V600E (setting [7]). The Dmax on BRAF G469A (setting [2]) was below 30%; on BRAF D594G (setting [4]) it was 30 to 70%; on BRAF G466V (setting [6]), below 30%; at BRAF V600E (setting [8]), above 70%.
Take `O=C1CC[C@H](c2ccc(N3CCC(CN4CCN(c5ccc(-n6cc(-c7cc(Cl)cc(NS(=O)(=O)N8CCCC8)c7F)c(-c7ccncc7)n6)cc5F)CC4)CC3)cc2)C(=O)N1` [Compound 364, N-{5-chloro-3-[1-(4-{4-[(1-{4-[(3R)-2,6-dioxopiperidin-3-yl]phenyl}piperidin-4-yl)methyl]piperazin-1-yl}-3-fluorophenyl)-3-(pyridin-4-yl)-1H-pyrazol-4-yl]-2-fluorophenyl}pyrrolidine-1-sulfonamide]: the DC50 was 10 to 50 nM on BRAF G469A (setting [9]), below 10 nM on BRAF D594G (setting [11]), below 10 nM at BRAF G466V (setting [13]) and 10 to 50 nM on BRAF V600E (setting [15]). In addition, the Dmax at BRAF G469A (setting [10]), at BRAF D594G (setting [12]), on BRAF G466V (setting [14]) and at BRAF V600E (setting [16]) was above 70% in each case.
For the molecule `CCCS(=O)(=O)Nc1cccc(-c2cn(-c3ccc(N4CCN(CC5CCN(c6ccc([C@@H]7CCC(=O)NC7=O)cc6)CC5)CC4)cc3)nc2-c2ccncc2)c1F` [Compound 10, N-{3-[1-(4-{4-[(1-{4-[(3S)-2,6-dioxopiperidin-3-yl]phenyl}piperidin-4-yl)methyl]piperazin-1-yl}phenyl)-3-(pyridin-4-yl)-1H-pyrazol-4-yl]-2-fluorophenyl}propane-1-sulfonamide], the DC50 on BRAF G469A (setting [1]) is above 500 nM; on BRAF D594G (setting [3]), above 500 nM; on BRAF G466V (setting [5]), 10 to 50 nM; at BRAF V600E (setting [7]), 10 to 50 nM. Moreover, the Dmax is 30 to 70% on BRAF G469A (setting [2]), 30 to 70% at BRAF D594G (setting [4]), 30 to 70% at BRAF G466V (setting [6]) and above 70% at BRAF V600E (setting [8]).
Regarding `CCCS(=O)(=O)Nc1cc(Cl)cc(-c2cn(-c3ccc(N4CCN(CC5CCN(c6ccc(N7CCC(=O)NC7=O)cc6)CC5)[C@H](C)C4)cc3)nc2-c2ccncc2)c1F` [Compound 277, N-[5-chloro-3-(1-{4-[(3R)-4-({1-[4-(2,4-dioxo-1,3-diazinan-1-yl)phenyl]piperidin-4-yl}methyl)-3-methylpiperazin-1-yl]phenyl}-3-(pyridin-4-yl)-1H-pyrazol-4-yl)-2-fluorophenyl]propane-1-sulfonamide], the DC50 was 10 to 50 nM on BRAF G469A (setting [9]), 50 to 500 nM at BRAF D594G (setting [11]), below 10 nM at BRAF G466V (setting [13]) and below 10 nM on BRAF V600E (setting [15]). Further, the Dmax on BRAF G469A (setting [10]) was 30 to 70%; on BRAF D594G (setting [12]), 30 to 70%; on BRAF G466V (setting [14]) it was above 70%; at BRAF V600E (setting [16]) it was above 70%.
